Patent US20220008537A1, “COMPOUNDS FOR PHOTODYNAMIC THERAPY AND RELATED USES” (GEORGIA STATE UNIVERSITY RESEARCH FOUNDATION, INC., priority 2018, published 2022)

How the values were obtained:
[1] = tested on: pUC19 plasmid DNA; assay: DNA photocleavage inhibition induced by chemical additives; format: biochemical; details: 20 μM dye, 38 μM bp pUC19, 830 nm 300 mW LED laser, pH 7.0
Method: Individual DNA cleavage reactions containing 5 μM to 50 μM concentrations of cyanine dye, 38 μM bp of pUC19 plasmid, and 10 mM of sodium phosphate pH 7.0 were prepared in a total volume of 40 μL. In order maintain reaction temperature at 10° C., 22° C., or 37° C., the samples were placed in a thermometer-fitted metal block that was either heated, kept at room temperature, or immersed in an ice bath. While monitoring temperature with the thermometer, the samples were either kept in the dark or were irradiated at time interval ranging from 5 min to 120 min using a light emitting diode (LED) laser (LaserLands) with a peak emission wavelength of either 532 nm (100 mW), 808 nm (300 mW), or 830 nm (300 mW). At the end of the irradiation time interval, a total of 3 μL of electrophoresis loading buffer containing 15.0% (w/v) ficoll and 0.025% (w/v) bromophenol blue) was added to each reaction and 20 μL of the resulting solution was added to one of the wells of 1.5% agarose gel stained with ethidium bromide (0.5 μg/mL, final concentration). Completely loaded gels were then electrophoresed for 60 min at 105 V in a Bio-Rad Laboratories gel box using 1×tris-acetate-EDTA (TAE) containing 0.5 μg/mL ethidium bromide as the running buffer. Electrophoresed gels were visualized at 302 nm with a VWR Scientific LM-20E transilluminator and then photographed with a UVP PhotoDoc-ItTM Imaging System. For quantitating the gels, ImageQuant version 5.2 software was employed. The DNA photocleavage yields were then calculated using the formula: Percent Photocleavage=[(Linear+Nicked DNA)/(Linear+Nicked+Supercoiled DNA)]×100. In an argon-purged glove box, 40 μL photocleavage reactions containing 10 mM sodium phosphate buffer pH 7.0, 20 μM of cyanine dye, and 38 μM bp of pUC19 plasmid were prepared from solutions bubbled with argon and then irradiated at 830 nm for 30 min The procedure was repeated using aerated solutions in a glove box purged with air. A second set of reactions containing 10 mM of sodium phosphate buffer pH 7.0, 38 μM bp pUC19 plasmid DNA and 20 μM of dye were prepared in the presence and absence of either 100 mM of the singlet oxygen scavenger sodium azide, 100 mM of the hydroxyl radical scavenger sodium benzoate, or 84% D2O (v/v). […] After the irradiation, the above DNA reactions were electrophoresed on 1.5% non-denaturing agarose gels, visualized, and quantitated as just described. The percent change in DNA photocleavage was then calculated using the formula, where additive stands for either argon, sodium azide, sodium benzoate, or D2O: Percent Change in Cleavage=[(% Total of Linear and Nicked […] additive-% Total of Linear and Nicked DNAwithout additive)/(% Total of Linear and Nicked DNAwithout additive)]×100. […]

In the case of `CN1C=C/C(=C/C=C/C=C/c2cc[n+](C)c3ccccc23)c2ccccc21.[I-]` [Dye 4, 1-methyl-4-((1E,3E)-5-((Z)-1-methylquinolin-4(1H)-ylidene)penta-1,3-dien-1-yl)quinolin-1-ium iodide], the melting point is reported as 239 °C (dec.).
With `CN1C=C/C(=C/C=C(Cl)/C=C/c2cc[n+](C)c3ccccc23)c2ccccc21.[I-]` [Dye 5, 4-((1E,3Z)-3-chloro-5-((Z)-1-methylquinolin-4(1H)-ylidene)penta-1,3-dien-1-yl)-1-methylquinolin-1-ium iodide] the “Photocleavage inhibition (%)” value ([1]; Reagent Argon (targets 1O2 & •OH)) was 67 ± 3%, the “Photocleavage inhibition (%)” value ([1]; Reagent D2O 84% (v/v) (target 1O2)) was 6 ± 1% and the “Photocleavage inhibition (%)” value ([1]; Reagent Sodium azide 100 mM (targets 1O2 > •OH)) was 26 ± 3%. For the same compound, the “Photocleavage inhibition (%)” value ([1]; Reagent Sodium benzoate 100 mM (target •OH)) was 31 ± 2% and the melting point was over 260 °C.
